Assay results: paper PMC9862096, “Interaction of a Homologous Series of Amphiphiles with P-glycoprotein in a Membrane Environment—Contributions of Polar and Non-Polar Interactions” (Pharmaceutics, 2023)

Assay: Critical aggregation concentration from NBD fluorescence (literature)
Format: physicochemical
Conditions: extrapolated from the co-solvent effect on NBD–Cn
Description: One important aspect which is usually overlooked in the studies of interactions with P–gp is whether the molecule of interest is in its monomeric state or aggregated. Some studies with detergents have included information regarding the formation of micelles and concluded that a complex effect on the ATPase activity (enhancement and inhibition) is observed even for concentrations below their CMC [21, 32, 91]. However, small aggregates are formed at concentrations several orders of magnitude smaller than the concentration at which micelles are detectable (their CMC). The aggregation behavior of the NBD amphiphiles used in this study was characterized by changes in the fluorescence properties of the NBD group and is, therefore, sensitive to the formation of small aggregates including dimers. The critical aggregation concentrations (CAC) at 25 °C are 1, 4, and 250 μM for NBD–C8, NBD–LysoMPE, and NBD–C4, respectively. […] An increase to at least 24 µM is thus predicted for NBD–LysoMPE.

## CCCCCCCCCCCCCC(=O)OCC(O)COP(=O)(O)OCCNc1ccc([N+](=O)[O-])c2nonc12 (stereo not shown) [NBD–LysoMPE]
  CAC predicted in the presence of co-solvents: at least 24 µM
